Experimental data taken from US20200031785A1, “METHODS FOR TREATING CHRONIC PAIN AND OPIOID DEPENDENCE USING ADENYLYL CYCLASE INHIBITORS” (Purdue Research Foundation, priority 2017, published 2020).
Like-named read-outs stand apart in the source and are kept apart here.

Legend:
AC1-HEK cells [1] = test system: AC1-HEK cells
Protocol: Cell viability assays were conducted with HEK-AC1 cells following plating and compound incubation protocols identical to the procedures described above in “Cyclic AMP assays in cells”. Cell viability was measured as a percentage of vehicle using 2% Triton X-100 (Sigma-Aldrich) as a control. The CellTiter-Glo® Luminescent Cell Viability Assay kit from Promega (Madison, Wis.) was employed to assess cell viability according to the manufacturer's instructions. Luminescence counts were measured using a Synergy 4.

hAC2 [2] = biological target: T1, hAC2 (Homo sapiens, UniProt Q08462); assay: Cyclic AMP accumulation in stable HEK-AC2 cells, stimulated with 100 nM PMA; format: cell-based; conditions: % inhibition at 30 μM, 100 nM PMA-stimulated, negative = potentiated response, n = 2
T1 construct: expressed in transfected cells
Protocol: (§1) Cyclic AMP accumulation was measured as previously described (Brust, et al., J. Pharmacol. Exp. Ther. 352, 480-493(2015)). Briefly, cryopreserved cells were thawed, resuspended in optiMEM (Life Technologies), and plated in white, flat bottom, low-volume, tissue culture-treated 384 well plates (PerkinElmer, Shelton, Conn.). Plates with cells were incubated in a 37° C. humidified incubator for 1 h. Inhibitors were added and plates were incubated at room temperature for 30 min followed by the addition of AC stimulants in the presence of 500 μM IBMX. Cells were incubated at room temperature for 1 h and cAMP accumulation was measured using Cisbio's cAMP kit (Cisbio Bioassays, Bedford, Mass.) according to the manufacturer's instructions.

hAC5 [3] = biological target: T2, hAC5 (Homo sapiens, UniProt O95622); assay: Cyclic AMP accumulation in stable HEK-AC5 cells, stimulated with 300 nM forskolin; format: cell-based; conditions: % inhibition at 30 μM, 300 nM forskolin-stimulated, negative = potentiated response, n = 2
T2 construct: expressed in transfected cells
Protocol: as §1

hAC1 = biological target: T3, hAC1 (Homo sapiens, UniProt Q08828); assay: Cyclic AMP accumulation in HEK cells stably expressing AC1, stimulated with A23187 (HTRF); format: cell-based; conditions: for Selectivity AC1 vs AC8: AC8 IC50/AC1 IC50, in the absence of AC8 IC50, estimate based on IC50 ≥30 μM; for hAC1 % Inhib. / IC50: stable HEK cell line, A23187-stimulated cAMP accumulation, n ≥ 3; for IC50: read-out: hAC1 IC50
T3 construct: expressed in transfected cells

hAC8 = biological target: T4, hAC8 (Homo sapiens, UniProt P40145); assay: Cyclic AMP accumulation in HEK cells stably expressing AC8, stimulated with A23187 (HTRF); format: cell-based; conditions: for hAC8 % Inhib.: % inhibition at 30 μM (negative values indicate a potentiated response); for IC50: stable HEK cell line, A23187-stimulated cAMP accumulation, n ≥ 3, read-out: hAC8 IC50
T4 construct: expressed in transfected cells

chronic pain responses = conditions: both mice and rats; cited from earlier work
hAC2 [4] = biological target: T1, hAC2; conditions: data from Brust et al. 2017; % inhibition at 30 μM, PMA-stimulated, negative = potentiated; cited from earlier work
AC1-HEK cells [5] = conditions: data from Brust et al. 2017; cited from earlier work
hAC5 [6] = biological target: T2, hAC5; conditions: data from Brust et al. 2017; % inhibition at 30 μM, forskolin-stimulated, negative = potentiated; cited from earlier work

T2 sequence (O95622 whole entry): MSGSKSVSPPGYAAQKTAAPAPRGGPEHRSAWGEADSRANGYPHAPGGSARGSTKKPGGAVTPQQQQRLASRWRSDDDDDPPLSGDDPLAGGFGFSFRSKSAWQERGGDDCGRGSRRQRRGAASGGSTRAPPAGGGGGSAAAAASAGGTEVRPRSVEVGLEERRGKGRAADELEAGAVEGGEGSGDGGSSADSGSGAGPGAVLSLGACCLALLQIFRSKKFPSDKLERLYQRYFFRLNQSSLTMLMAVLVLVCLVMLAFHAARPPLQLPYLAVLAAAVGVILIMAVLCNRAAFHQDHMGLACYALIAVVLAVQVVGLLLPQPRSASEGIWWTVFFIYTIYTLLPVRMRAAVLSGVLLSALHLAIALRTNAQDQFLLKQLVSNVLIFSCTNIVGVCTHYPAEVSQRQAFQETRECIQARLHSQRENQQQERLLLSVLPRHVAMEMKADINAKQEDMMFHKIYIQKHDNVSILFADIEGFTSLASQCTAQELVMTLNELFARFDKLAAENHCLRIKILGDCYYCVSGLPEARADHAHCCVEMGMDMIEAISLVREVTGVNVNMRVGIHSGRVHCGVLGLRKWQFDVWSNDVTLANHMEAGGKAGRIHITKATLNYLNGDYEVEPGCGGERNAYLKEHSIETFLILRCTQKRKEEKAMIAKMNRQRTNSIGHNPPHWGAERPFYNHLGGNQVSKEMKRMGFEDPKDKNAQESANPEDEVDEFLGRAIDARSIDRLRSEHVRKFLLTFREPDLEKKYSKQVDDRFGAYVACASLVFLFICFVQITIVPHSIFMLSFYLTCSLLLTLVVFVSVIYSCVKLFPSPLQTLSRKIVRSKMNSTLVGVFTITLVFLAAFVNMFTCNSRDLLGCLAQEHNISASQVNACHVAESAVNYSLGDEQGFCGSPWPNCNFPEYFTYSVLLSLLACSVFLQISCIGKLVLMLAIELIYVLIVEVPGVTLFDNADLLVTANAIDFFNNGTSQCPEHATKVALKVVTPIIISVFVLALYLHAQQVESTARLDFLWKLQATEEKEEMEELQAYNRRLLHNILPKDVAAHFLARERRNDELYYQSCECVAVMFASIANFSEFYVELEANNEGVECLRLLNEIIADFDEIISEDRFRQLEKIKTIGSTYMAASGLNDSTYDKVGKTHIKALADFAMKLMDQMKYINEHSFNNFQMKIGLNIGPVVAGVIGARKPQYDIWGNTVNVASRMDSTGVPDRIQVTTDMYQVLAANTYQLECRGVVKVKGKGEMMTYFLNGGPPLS
T4 sequence (P40145 whole entry): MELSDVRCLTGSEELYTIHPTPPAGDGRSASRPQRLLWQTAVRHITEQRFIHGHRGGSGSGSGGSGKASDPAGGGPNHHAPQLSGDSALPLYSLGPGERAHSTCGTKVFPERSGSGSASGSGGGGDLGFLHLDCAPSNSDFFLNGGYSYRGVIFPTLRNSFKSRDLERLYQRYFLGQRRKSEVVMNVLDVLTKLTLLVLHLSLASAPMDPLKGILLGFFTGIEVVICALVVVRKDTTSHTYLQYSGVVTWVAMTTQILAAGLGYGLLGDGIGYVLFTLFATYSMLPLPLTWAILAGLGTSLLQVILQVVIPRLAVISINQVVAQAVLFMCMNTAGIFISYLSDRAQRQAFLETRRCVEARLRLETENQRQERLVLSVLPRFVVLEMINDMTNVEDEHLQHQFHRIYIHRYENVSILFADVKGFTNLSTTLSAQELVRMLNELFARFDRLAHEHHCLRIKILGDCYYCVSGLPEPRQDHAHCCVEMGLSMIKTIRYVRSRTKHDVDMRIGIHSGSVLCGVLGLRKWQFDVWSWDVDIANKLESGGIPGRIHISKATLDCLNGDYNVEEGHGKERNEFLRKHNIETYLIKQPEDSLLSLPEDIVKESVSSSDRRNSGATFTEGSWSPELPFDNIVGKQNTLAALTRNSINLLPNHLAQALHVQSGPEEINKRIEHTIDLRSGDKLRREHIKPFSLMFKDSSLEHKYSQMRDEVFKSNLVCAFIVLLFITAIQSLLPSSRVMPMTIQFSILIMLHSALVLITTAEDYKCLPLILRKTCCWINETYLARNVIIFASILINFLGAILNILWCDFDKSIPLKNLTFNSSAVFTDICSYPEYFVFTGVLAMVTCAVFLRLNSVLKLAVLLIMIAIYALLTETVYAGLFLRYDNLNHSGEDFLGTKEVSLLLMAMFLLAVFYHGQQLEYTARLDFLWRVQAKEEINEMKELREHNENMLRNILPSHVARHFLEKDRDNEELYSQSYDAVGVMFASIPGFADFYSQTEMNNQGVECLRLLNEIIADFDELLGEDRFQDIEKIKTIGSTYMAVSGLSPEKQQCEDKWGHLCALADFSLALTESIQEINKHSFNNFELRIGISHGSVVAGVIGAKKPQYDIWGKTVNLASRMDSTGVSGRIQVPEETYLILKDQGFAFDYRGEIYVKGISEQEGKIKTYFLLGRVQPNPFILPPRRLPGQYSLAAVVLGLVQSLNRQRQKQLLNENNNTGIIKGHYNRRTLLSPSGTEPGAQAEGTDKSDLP
T1 sequence (Q08462 whole entry): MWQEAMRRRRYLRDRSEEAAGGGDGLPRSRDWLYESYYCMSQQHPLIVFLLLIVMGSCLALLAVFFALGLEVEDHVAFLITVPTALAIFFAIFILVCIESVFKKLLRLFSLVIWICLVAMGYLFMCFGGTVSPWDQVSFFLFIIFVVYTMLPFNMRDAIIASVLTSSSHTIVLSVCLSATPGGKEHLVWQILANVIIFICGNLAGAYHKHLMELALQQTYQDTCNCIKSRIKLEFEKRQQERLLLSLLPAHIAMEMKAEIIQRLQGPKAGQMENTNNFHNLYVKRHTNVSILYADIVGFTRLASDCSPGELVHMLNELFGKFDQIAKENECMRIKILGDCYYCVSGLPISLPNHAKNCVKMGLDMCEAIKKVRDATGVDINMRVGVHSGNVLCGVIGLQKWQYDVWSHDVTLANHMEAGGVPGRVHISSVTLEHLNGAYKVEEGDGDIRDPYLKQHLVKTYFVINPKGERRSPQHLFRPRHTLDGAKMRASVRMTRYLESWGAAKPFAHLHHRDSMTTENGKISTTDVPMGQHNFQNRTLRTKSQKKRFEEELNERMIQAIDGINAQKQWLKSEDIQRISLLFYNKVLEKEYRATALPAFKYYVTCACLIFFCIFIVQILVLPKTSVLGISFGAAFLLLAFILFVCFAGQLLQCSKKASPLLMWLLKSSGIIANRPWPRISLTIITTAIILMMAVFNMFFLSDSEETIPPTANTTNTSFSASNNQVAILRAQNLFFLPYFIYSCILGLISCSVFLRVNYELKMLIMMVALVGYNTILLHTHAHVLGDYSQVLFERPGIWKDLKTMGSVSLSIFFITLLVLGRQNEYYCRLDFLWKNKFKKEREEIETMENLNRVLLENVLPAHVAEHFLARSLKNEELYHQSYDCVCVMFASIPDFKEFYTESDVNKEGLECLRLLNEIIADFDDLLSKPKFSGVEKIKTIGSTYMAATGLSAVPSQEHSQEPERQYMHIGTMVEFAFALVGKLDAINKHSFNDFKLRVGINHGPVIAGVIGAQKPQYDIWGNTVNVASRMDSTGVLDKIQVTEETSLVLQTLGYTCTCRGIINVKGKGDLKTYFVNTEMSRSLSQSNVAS
T3 sequence (Q08828 whole entry): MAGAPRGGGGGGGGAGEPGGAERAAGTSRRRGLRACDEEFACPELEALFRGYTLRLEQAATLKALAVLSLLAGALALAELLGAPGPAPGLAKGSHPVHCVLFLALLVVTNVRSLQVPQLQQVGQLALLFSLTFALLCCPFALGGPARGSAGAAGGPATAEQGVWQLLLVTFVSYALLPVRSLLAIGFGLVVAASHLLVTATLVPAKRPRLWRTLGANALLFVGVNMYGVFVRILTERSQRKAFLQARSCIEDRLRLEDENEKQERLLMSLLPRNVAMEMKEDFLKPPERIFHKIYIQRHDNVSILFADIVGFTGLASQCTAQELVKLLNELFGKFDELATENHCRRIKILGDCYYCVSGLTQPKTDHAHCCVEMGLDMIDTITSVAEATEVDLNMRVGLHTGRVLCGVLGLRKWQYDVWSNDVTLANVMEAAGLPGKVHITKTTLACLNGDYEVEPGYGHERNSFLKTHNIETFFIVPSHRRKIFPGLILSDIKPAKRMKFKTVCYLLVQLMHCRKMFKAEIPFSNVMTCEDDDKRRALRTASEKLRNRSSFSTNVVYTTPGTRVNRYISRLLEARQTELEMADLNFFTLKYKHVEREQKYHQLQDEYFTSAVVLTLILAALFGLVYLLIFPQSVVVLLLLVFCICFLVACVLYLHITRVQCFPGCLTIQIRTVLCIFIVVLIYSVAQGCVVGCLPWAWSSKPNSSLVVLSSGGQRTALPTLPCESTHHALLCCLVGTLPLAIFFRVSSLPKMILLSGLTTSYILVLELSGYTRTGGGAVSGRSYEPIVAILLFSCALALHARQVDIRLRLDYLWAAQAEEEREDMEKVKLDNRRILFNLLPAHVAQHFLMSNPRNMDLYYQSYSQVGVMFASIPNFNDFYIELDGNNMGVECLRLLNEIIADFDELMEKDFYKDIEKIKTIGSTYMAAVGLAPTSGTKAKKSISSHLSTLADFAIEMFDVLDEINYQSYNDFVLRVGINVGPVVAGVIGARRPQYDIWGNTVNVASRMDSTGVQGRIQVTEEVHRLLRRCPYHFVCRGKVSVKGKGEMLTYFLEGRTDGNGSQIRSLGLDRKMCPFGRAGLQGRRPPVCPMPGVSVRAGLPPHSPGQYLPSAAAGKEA

Row | SMILES | Viability % Vehicle (AC1-HEK cells [1]) [% Vehicle] | hAC2 % Inhib. (hAC2 [2]) [%] | hAC5 % Inhib. (hAC5 [3]) [%] | Selectivity AC1 vs AC8 (hAC1) | hAC1 % Inhib. (hAC1) [%] | IC50 (hAC1) [µM] | hAC8 % Inhib. (hAC8) [%] | IC50 (hAC8) [µM] | effect on chronic pain responses (inflammatory and neuropathic) (chronic pain responses) | hAC2 % Inhib. (hAC2 [4]) [%] | Viability % Vehicle (AC1-HEK cells [5]) [% Vehicle] | hAC5 % Inhib. (hAC5 [6]) [%]
1 | O=C(Nc1nnc(-c2ccc3c(c2)OCCO3)o1)c1ccc(Br)cc1 [F0608-0011] | 125 ± 3 | -7 | −10 | 9-fold | 101 ± 1 | 2 ± 0.2 | 79 ± 1 | 18 ± 2 | – | – | – | –
2 | O=C(Nc1nnc(-c2ccc3c(c2)CCCC3)o1)c1ccccc1 [F0608-0538] | 118 ± 6 | -95 | −34 | 10-fold | 101 ± 1 | 2.1 ± 0.4 | 76 ± 8 | 21 ± 4 | – | – | – | –
3 | CCc1cc(=O)[nH]c(-n2nc(C)cc2NC(=O)c2ccccc2F)n1 [F2215-0213] | 101 ± 17 | −70 | 9 | – | 99 ± 1 | 0.5 ± 0.1 | 20 ± 1 | – | – | – | – | –
4 | CCc1c(C)nc(-n2nc(C)cc2NC(=O)c2ccco2)[nH]c1=O [F2215-0772] | 93 ± 1 | 32 | 13 | >30-fold | 100 ± 1 | 0.9 ± 0.2 | 34 ± 7 | – | – | – | – | –
5 | CSc1ccccc1C(=O)Nc1cc(C)nn1-c1nc2c(c(=O)[nH]1)CCC2 [F2215-0954] | 106 ± 14 | −185 | −21 | >5-fold | 99 ± 1 | 5.9 ± 0.4 | 35 ± 8 | – | – | – | – | –
6 | CSc1cccc(C(=O)Nc2nnc(C3CCCCC3)o2)c1 [F2289-0107] | 117 ± 1 | −210 | -28 | >4-fold | 99 ± 1 | 7.5 ± 2 | 31 ± 2 | – | – | – | – | –
7 | Nc1ncnc2c1ncn2CCNCCCCCO [NB001] | – | – | – | – | – | – | – | – | markedly attenuated chronic pain responses | – | – | –
8 | O=c1cc(C(Cl)(Cl)Cl)oc2ccc(Cl)cc12 [ST034307, 6-chloro-2-(trichloromethyl)-4H-chromen-4-one] | – | – | – | – | – | – | – | – | – | −142 | 85 ± 6 | −44
